The nature of the data set: Pharmacokinetics after intravenous and oral administration in fasted Beagle dogs. As to conditions: compared with the compound of example 408 of WO 9723508. The format is in vivo. How it is done: The pharmakokinetic data were obtained by the following procedure:
The pharmacokinetics of the test compounds were Investigated in fasted Beagle dogs.
Intravenous and oral administration of the test compound, in 5% glucose solution, was separated by a one-week washout.
Blood samples were collected immediately before drug administration (time zero) and than 0.08, 0.25, 0.50, 0.75, 1.0, 1.5. 2.0, 3.0, 4.0, 5.0, and 6.0 hours after administration.
The plasma samples were stored frozen (<-18°C) pending analysis.
An HPLC method with solid phase extraction and W detection was used for the quantification of the compound in plasma.
The pharmacokinetic parameters for the compounds were calculated by non-compartmental methods using the PC based pharmacokinetic software WinNonlin, version 1.1 (Scientific Consulting Inc., Apex, NC, USA).

Take `CN(CCc1ccccn1)C(=O)[C@@H](Cc1ccccc1)N(C)C(=O)[C@@H](Cc1ccc2ccccc2c1)N(C)C(=O)/C=C/CC(C)(C)N` [Example 1, (2E)-5-Amino-5-methylhex-2-enoic acid N-methyl-N-[(1R)-1-(N-methyl-N-{(1R)-1-[N-methyl-N-(2-(2-pyridinyl)ethyl)carbamoyl]-2-phenylethyl}carbamoyl)-2-(2-naphthyl)ethyl]amide]: under “administration in 5% glucose solution”, the plasma half-life result is reported as “shorter plasma half-life”. In addition, the oral bioavailability entry (oral vs intravenous administration in 5% glucose solution) is listed as “better oral bioavailability”.

The values above are taken from EP1127071B1, “COMPOUNDS WITH GROWTH HORMONE RELEASING PROPERTIES” (Novo Nordisk A/S, priority 1998, dated 2000).
